Measured values: ChEMBL document CHEMBL3885861, “Open TG-GATES”

Organism: Rattus norvegicus
Assay: Open TG-GATES - Regimen: Single
Type: toxicity, organism-based, Sprague-Dawley
Design: regimen Single, gender Male, age 6 weeks
Conditions: in vivo, po, route gavage; for APTT / Bas / Eos / Fbg / Hb / Ht / Lym / MCH / MCHC / MCV / Mono / Neu / PT / Plat / RBC / WBC: tissue Blood; for KIDNEY_L / KIDNEY_R / KIDNEY_TOTAL: tissue Kidney; for LIVER: tissue Liver; for ALT / AST / CRE / Cl / DBIL / GLC / IP / LDH / Na / RALB / TBIL / TC / TG / TP / gamma-GTP / BUN: tissue Plasma
[1] = 0 mg/kg, 3 h, dose level Control
[2] = 0 mg/kg, 6 h, dose level Control
[3] = 0 mg/kg, 9 h, dose level Control
[4] = 0 mg/kg, 24 h, dose level Control

For `CC/C(=C(\c1ccccc1)c1ccc(OCCN(C)C)cc1)c1ccccc1` [TAMOXIFEN], the TERMINAL_BW [1] was 194.3 g, the APTT [1] was 16.9 s and the Bas [1] was 0%. The Eos [1] was 0.8%, the Fbg [1] was 248.6 mg/dL and the Hb [1] was 13 g/dL. It also gave a Ht [1] of 39.1%, a Lym [1] of 76% and an MCH [1] of 21.6 pg. For the same compound, the MCHC [1] was 33.2%, the MCV [1] was 65.1 fL and the Mono [1] was 3.6%. It also gave a Neu [1] of 19.2%, a PT [1] of 12.2 s and a Plat [1] of 123.1 x10_4/uL. It also gave an RBC [1] of 601.8 x10_4/ul, a WBC [1] of 87.4 x10_2/uL and a KIDNEY_L [1] of 0.9 g. The KIDNEY_R [1] was 0.8 g, the KIDNEY_TOTAL [1] was 1.7 g and the LIVER [1] was 8.3 g. The ALT [1] was 47.6 IU/L, the AST [1] was 77.6 IU/L and the CRE [1] was 0.2 mg/dL. For the same compound, the Cl [1] was 106.8 meq/L, the DBIL [1] was 0.02 mg/dL and the GLC [1] was 173.6 mg/dL. The IP [1] was 10.2 mg/dL, the LDH [1] was 69.6 IU/L and the Na [1] was 140.8 meq/L. The RALB [1] was 2.6 g/dL, the TBIL [1] was 0.042 mg/dL and the TC [1] was 86.4 mg/dL. The TG [1] was 94.6 mg/dL, the TP [1] was 5.6 g/dL and the gamma-GTP [1] was 1.4 IU/L. For the same compound, the TERMINAL_BW [2] was 192.7 g, the APTT [2] was 16.1 s and the Bas [2] was 0%. It also gave an Eos [2] of 1%, a Fbg [2] of 261.5 mg/dL and a Hb [2] of 13.2 g/dL. The Ht [2] was 39.6%, the Lym [2] was 69.8% and the MCH [2] was 21.8 pg. It also gave an MCHC [2] of 33.4%, an MCV [2] of 65.3 fL and a Mono [2] of 3.2%. The Neu [2] was 25.8%, the PT [2] was 12.1 s and the Plat [2] was 118.7 x10_4/uL. For the same compound, the RBC [2] was 607 x10_4/ul, the WBC [2] was 64.1 x10_2/uL and the KIDNEY_L [2] was 0.8 g. For the same compound, the KIDNEY_R [2] was 0.8 g, the KIDNEY_TOTAL [2] was 1.7 g and the LIVER [2] was 7.8 g. For the same compound, the ALT [2] was 37.8 IU/L, the AST [2] was 73 IU/L and the BUN [2] was 9.8 mg/dL. It also gave a CRE [2] of 0.2 mg/dL, a Cl [2] of 110.2 meq/L and a DBIL [2] of 0.015 mg/dL. For the same compound, the GLC [2] was 171.2 mg/dL, the IP [2] was 10 mg/dL and the LDH [2] was 52.2 IU/L. For the same compound, the Na [2] was 142.2 meq/L, the RALB [2] was 2.6 g/dL and the TBIL [2] was 0.0425 mg/dL. For the same compound, the TC [2] was 86.5 mg/dL, the TG [2] was 59 mg/dL and the TP [2] was 5.4 g/dL. The gamma-GTP [2] was 1 IU/L, the TERMINAL_BW [3] was 194.3 g and the APTT [3] was 16.5 s. The Bas [3] was 0%, the Eos [3] was 1% and the Fbg [3] was 259.6 mg/dL. It also gave a Hb [3] of 12.8 g/dL, a Ht [3] of 38.4% and a Lym [3] of 75.2%. For the same compound, the MCHC [3] was 33.4%, the MCV [3] was 64 fL and the Mono [3] was 3%. The PT [3] was 12.2 s, the Plat [3] was 111.1 x10_4/uL and the RBC [3] was 599.4 x10_4/ul. The WBC [3] was 73.7 x10_2/uL, the KIDNEY_L [3] was 0.8 g and the KIDNEY_R [3] was 0.8 g. The KIDNEY_TOTAL [3] was 1.6 g, the LIVER [3] was 7.1 g and the ALT [3] was 42.4 IU/L. The AST [3] was 71.8 IU/L, the BUN [3] was 10.2 mg/dL and the CRE [3] was 0.2 mg/dL. It also gave a Cl [3] of 107.2 meq/L, a DBIL [3] of 0.012 mg/dL and a GLC [3] of 184.6 mg/dL. For the same compound, the LDH [3] was 50 IU/L, the Na [3] was 142.8 meq/L and the RALB [3] was 2.5 g/dL. For the same compound, the TBIL [3] was 0.05 mg/dL, the TC [3] was 84.6 mg/dL and the TG [3] was 37.4 mg/dL. The TP [3] was 5.3 g/dL, the gamma-GTP [3] was 1.6 IU/L and the TERMINAL_BW [4] was 200.5 g. It also gave an APTT [4] of 15.5 s, a Bas [4] of 0% and an Eos [4] of 1%. It also gave a Fbg [4] of 258.4 mg/dL, a Hb [4] of 13 g/dL and a Ht [4] of 38.9%. For the same compound, the Lym [4] was 70.6%, the MCH [4] was 21.5 pg and the MCHC [4] was 33.5%. For the same compound, the MCV [4] was 64.2 fL, the Mono [4] was 4% and the Neu [4] was 24%. The PT [4] was 12.3 s, the Plat [4] was 116.6 x10_4/uL and the RBC [4] was 605.8 x10_4/ul. It also gave a WBC [4] of 89.9 x10_2/uL, a KIDNEY_L [4] of 0.9 g and a KIDNEY_R [4] of 0.9 g. It also gave a KIDNEY_TOTAL [4] of 1.8 g, an LIVER [4] of 9.1 g and an ALT [4] of 51.8 IU/L. The AST [4] was 76.2 IU/L, the BUN [4] was 14.6 mg/dL and the CRE [4] was 0.2 mg/dL. For the same compound, the Cl [4] was 107.2 meq/L, the DBIL [4] was 0.012 mg/dL and the GLC [4] was 183.8 mg/dL. It also gave an IP [4] of 7.8 mg/dL, an LDH [4] of 69 IU/L and a Na [4] of 142.4 meq/L. For the same compound, the RALB [4] was 2.6 g/dL, the TBIL [4] was 0.034 mg/dL and the TC [4] was 93.2 mg/dL. For the same compound, the TG [4] was 83 mg/dL, the TP [4] was 5.5 g/dL and the gamma-GTP [4] was 1 IU/L. For the same compound, the TERMINAL_BW (6 mg/kg, 3 h, dose level Low) was 191.8 g.
